System: monoclonal antibody specific for (NANP)3 / recombinant protein containing the repetitive domain (NANP)n interaction
Experiment: Inhibition ELISA: inhibition of the monoclonal antibody-recombinant protein interaction
Assay type: binding, mouse
Conditions: 2000 to 3,9 μg/ml peptide or peptide-resin; 2 h at room temperature; absorbance at 492 nm; FIG. 6
Description: In brief, the designed immunological experiment encompassed the following steps: the purified recombinant protein containing the repetitive domain (NANP)n of the circunsporozoite form of Plasmodium falciparum (v.g. Cell, 70, 1021-1033, [1992]) was added to Elisa's plate (200 ng/well) and maintained overnight at room temperature. After 3 washes with phosphate buffer containing 0,05% Tween-20, the plates were treated at 37° C. with PBS containing 5% disnatured milk and 1% serum bovine albumin. To calculate the degree of interaction of this recombinant protein with its antibody, the plates were treated with a specific monoclonal antibody for the (NANP)3 sequence obtained according to the reference in Science 228, 1436-1440 (1985), in a final concentration of 20 ng/ml. […] After 1 h of incubation at room temperature, the excess of labeled antibody was removed during the washings and the calorimetric reaction with o-phenilenediamine was developed and read at 492 nm. […]
100 μl of PBS were added to 2000 μg/ml to 3,9 μg/ml of free peptide (acetyl-NANP)3 or of {[(acetil-NANP)3]4-Eac4-(Lys)2-Lys-DEAE-Sephadex A50}resin. […] The absorbance of solutions was measured at 492 nm and the percentage of inhibition of this interaction antibody-recombinant protein induced by peptide-resin, resin or peptide was calculated according to the equation: […]

acetyl-(NANP)3 [free (acetyl-NANP)3]
inhibition of the antibody-recombinant protein interaction: highest inhibition
